Data: patent publication US6583122B2, “Nucleosides and oligonucleotides containing boron clusters” (Emory University, priority 1993, dated 2003)
Entries after “also recorded” stand apart in the source; their conditions may differ.

Assays:
YMDD motif of HIV-1 RT = test: In vitro site directed mutagenesis of HIV-1 reverse transcriptase gene, transformation into E. coli and sequencing; type: cell-based; settings: sequencing of mutants; for amino acid change: YMDD motif
Excerpt: Example 6 describes the in vivo mutation of the RT gene within the YMDD motif, incorporated into a proper vector in E. coli cells. The mutagenic oligonucleotide DNA target region is the conserved YMDD motif (nucleotides 5′ 2678 to 3′ 2689) of HIV-1 RT. The mutagenic oligonucleotides used were
The procedure for in vitro site directed mutagenesis used in this experiment was a modification of that used in the Altered Sites mutagenesis Kit #Q6210 (Promega Corp., Madison, Wis.). Briefly, oligonucleotides, 5′-AATACATGGA(CDU)GATTTGTAT-3′ (SEQ ID NO:1) and 5′-AATACATGG(CDU)(CDU)GATTTGTAT-3′ (SEQ ID NO:2), and a control, located on the putative catalytic active site for HIV-1 RT (5′-2676 to 3′-2696) were 5′ phosphorylated using T4 polynucleotide kinase. The reaction was terminated by heating to 70° C. for 10 min. The mutagenesis annealing reaction was performed by adding 0.05 pmol of pHIVALT-1 ssDNA, 0.25 pmol ampicillin repair oligonucleotide (supplied in the kit), 1.25 pmol of the 5′ phosphorylated mutagenic oligo, and an annealing buffer supplied in the kit in a final volume of 20 μL. The control oligonucleotide reactions for this experiment were done separately along with an added reaction that contained ampicillin repair oligo but no mutagenic oligo 5′-AATACATGGA(CDU)GATTTGTAT-3′ (SEQ ID NO: 1) and 5′-AATACATGG(CDU)(CDU) GATTTGTAT-3′ (SEQ ID NO:2) and control unmodified. The reactions were then heated to 70° C. for 5 min and allowed to cool to room temperature over a 15-20 min period. The annealing reactions were placed on ice and the following reagents were added: 3 μL 10× synthesis buffer (supplied in kit), 1 μL T4 DNA polymerase (10 U/μL ), 1 μL T4 DNA ligase (2 U/μL ), and 5 μL sterile dHO. The 30 μL reaction was incubated at 37° C. for 90 min to perform second strand synthesis and ligation. […]

polyriboadenylic acid = test: Melting temperature (Tm) of duplexes with polyriboadenylic acid; type: binding; settings: polyriboadenylic acid as target; PIPES buffer at 120 mM NaCl
[1] = system: calf spleen phosphodiesterase; test: Resistance to calf spleen phosphodiesterase; type: in vitro ADME; settings: in words
d(A)12 = test: Melting temperature (Tm) of duplexes with d(A)12; type: binding; settings: for Tm: d(A)12 as complementary strand, 1:1, PIPES buffer at 120 mM NaCl
Description: Melting Temperature (Tm) Measurements. Samples for Tm measurements were prepared by the addition of concentrated stock solutions of the d(T)12 (18) or CDU modified d(T)12 (19-24) and d(A)12stock solution to 1.0 mL 10 mM 1,4-piperazine-bis-(ethane-sulfonic acid) (PIPES) buffer (pH 7.0) containing 100 mM NaCl, and 1 mM EDTA, in amounts to give a 1:1 ratio. Each strand was present at 40 μM. Molar extinction coefficients ε260 (per base) were calculated as following: 18: 8,150; d(A)12: 12,280; 19-24: 8,200. The samples were heated to 85° C. and cooled slowly to room temperature before melting. The insulated cell compartment of the UV spectrophotometer was continuously warmed from 0° C. to 85° C. at the rate 0.5° C. per minute. Samples were heated in quartz cuvettes fitted with a teflon stopper (1 cm path length). The absorption change at 260 nm was followed as a function of temperature, and Tm values were obtained from first derivative plots after the data were transferred to a Macintosh computer for visualization and analysis.

[2] = system: Phosphodiesterase I (EC 3.1.4.1) type VIII from Crotalus durissus terrificus venom; test: Stability towards snake venom phosphodiesterase (SVPD) 3′-exonuclease, HPLC; type: in vitro ADME; settings: for % remaining: SVPDE; for T½: degradation by SVPDE, disappearance of 12-mer (11-mer for CDU-modified oligos)
Description: Resistance of dodeca (thymidine phosphates) containing CDU (19-24) against phosphodiesterase I (EC 3.1.4.1): To 100 mM Tris-HCl buffer, pH 8.9 (90 μL) containing 20 mM MgCl2, 0.1 A260 ODU of oligonucleotide 19-24 (5 μL), 1.5×10-3 unit (5 μL) of phosphodiesterase was added. A blank with no enzyme, and a control reaction with d(T)12 were assayed simultaneously. Reactions were maintained at 37° C. for 10 minutes and then 50 μL aliquots were analyzed by HPLC under conditions described above.
The replacement of all natural phosphodiester linkages within oligonucleotide chain by methylphosphonate ones is an example of modifications that ensure complete stability of the oligonucleotide towards exo- and endonucleases. To test the resistance of CDU-oligonucleotides towards 3′-exonucleolytic activity (hydrolysis of the oligonucleotide from 3′-end), snake venom phosphodiesterase (SVPD) from Crotalus durissus terrificus was used. It was discovered that these oligonucleotides are remarkably stable to 3′-exonucleases if the CDU residue is incorporated in the 3′- or both 3′- and 5′-end. The oligonucleotide bearing both 3′- and 5′-modifications (24) was also resistant to SVPD and calf spleen phosphodiesterase.
The half-life (T½) of 3′-CDU-, 3′,5′-CDU- and 3′CDU2-oligonucleotides were determined by kinetic study of their degradation by SVPDE (snake venom phosphodiesterase). Aliquots of enzymatic reaction (0, 5, 10, 20, 40, 80 and 240 minutes) were analyzed by HPLC. Calculations of half life time were based on the disappearance of 12-mer (or 11-mer in the case of CDU-modified oligos) after standardization with 2′-deoxycytidine used as internal standard.

Substance | Tm (polyriboadenylic acid) [°C] | Tm (d(A)12) [°C] | % remaining ([2]; time 0 min) [%] | % remaining ([2]; time 5 min) [%] | % remaining ([2]; time 10 min) [%] | % remaining ([2]; time 40 min) [%] | T½ [2] [min] | further results
5′-AATACATGG(CDU)(CDU)GATTTGTAT-3′ [RL-2] |  |  |  |  |  |  |  | amino acid change (YMDD motif of HIV-1 RT): YMDD to YRVD
5′-AATACATGGA(CDU)GATTTGTAT-3′ [RL-1] |  |  |  |  |  |  |  | clones in which the mutation occurred next to the base opposite to CDU on the complimentary strand (YMDD motif of HIV-1 RT): 60%; amino acid change (YMDD motif of HIV-1 RT): YMDD to YMVD; also recorded: YMDD to YMGD
5′CDUd(T)9CDUd(T) [Oligomer 24] | 17.0 | 20.0 | 100 | 56.2 | 38.1 | 14.8 | 5.06 | resistance to calf spleen phosphodiesterase [1]: resistant; resistance towards 3′-exonucleolytic activity (SVPD) ([2]; in words): resistant
5′CDUd(T)11 [Oligomer 19] |  |  |  |  |  |  |  | Tm (d(A)12; listed as 19): 28.0 °C; Tm (d(A)12; listed as CDU(dT)11): 28.8 °C
5′d(T)6CDUd(T)5 [Oligomer 21] |  | 15.2 |  |  |  |  |  | 
5′d(T)9(CDU)2d(T) [Oligomer 23] | 10.0 | 15.3 | 100 | 82.0 |  | 78.9 | 76.2 | % remaining ([2]; time 20 min): 80.0%; % remaining ([2]; time 80 min): 54.0%; % remaining ([2]; time 240 min): 10.5%
5′d(T)10CDUd(T) [Oligomer 22] |  | 20.5 | 100 | 54.8 | 44.0 | 23.2 | 6.7 | difference in Tm (d(A)12; between oligonucleotides 20 and 22): 7-8 °C; % remaining ([2]; time 20 min): 38.3%; % remaining ([2]; time 80 min): 11.0%
5′d(T)CDUd(T)10 [Oligomer 20] | 25.7 | 27.2 |  |  |  |  |  | 
d(T)12 [Oligomer 18, reference compound] | 30.0 | 29.0 | 100 | 9.1 | 2.6 |  | 0.5 | 
